Assay results taken from patent US4764361A, “Pharmaceutical compositions” (Imperial Chemical Industries PLC, priority 1987, dated 1988).
Where “and” joins values, the source holds several entries; their conditions need not be identical. Equal values may be shown once.

Columns and labels:
Format in all cases: in vivo
[1] = tested on: inflammation on the mouse ear induced by the irritant, croton oil; experiment: Test A: inhibition of inflammation on the mouse ear induced by croton oil; settings: for % Inhibition / % increase in ear weight ± SEM / ED50 application rate: topical; for % Inhibition / % increase in ear weight ± SEM: 4 hours; for ED50 application rate: Test A; for activity as topical anti-inflammatory agent: application rate of 250 micrograms/ear
Protocol: (a) in a standard test involving the inhibition of inflammation on the mouse ear induced by the irritant, croton oil (Test A);
(a) Method: Groups of mice were dosed with an acetone solution of test compound or vehicle (acetone) pre-mixed with an equal volume of 4% w/v croton oil in acetone topically to the right ear (10 μl volume). Four hours later, the animals were killed and both the left (control) and right (treated) ears were removed and weighed. The percentage increase in ear weight of the treated against control was then calculated. The anti-inflammatory activity was finally expressed as percentage inhibition for the test compound dosed group in comparison with the vehicle dosed control group.

[2] = tested on: oxazolone induced contact dermatitis (erythema); experiment: Test C: oxazolone induced contact dermatitis in the domestic pig
Protocol: (c) in a standard test involving oxazolone induced contact dermatitis in the domestic pig (Test C).
Method: Domestic pigs were sensitised by topical application of 0.4 ml of a 10% w/v solution of oxazolone in acetone to the neck region on two occasions two weeks apart. Six paired sites were then prepared and delineated with one site from each pair to the left and one to the right of the mid-line of the back of the animal. […] The left hand site of the second three pairs was similarly treated with 0.05 ml of a second solution of the test compound in acetone at pH 5. All of the righthand sites were used as controls and were treated with 0.05 ml of acetone (acidified to pH 5 with citric acid). After 24 hours, the same treatment was repeated followed immediately by a challenge of 0.025 ml of a 1% w/v solution of oxazolone in acetone to the 1st and 4th pairs of sites, of 5% w/v solution of oxazolone in acetone to the 2nd and 5th pair of sites, and of 10% w/v solution of oxazolone in acetone to the 3rd and 6th pairs of sites. […] An inflammatory index was obtained by multiplying the area and erythema readings together. By comparison of the values for the treated and control sites, the percentage reduction in erythema of the test compound could be assessed.

[3] = tested on: delayed hypersensitivity reaction to the contact irritant oxazolone; experiment: Test B: inhibition of the delayed hypersensitivity reaction to oxazolone in mice; settings: for Inhibition: 24 hours, free base in acidified acetone pH 5
Protocol: (b) in a standard test involving the inhibition of the delayed hypersensitivity reaction to the contact irritant, 4-ethoxymethylene-2-phenyloxazolone (hereinafter referred to as oxazolone) in mice (Test B); and
(a) Method: Mice were sensitised by the topical application of a 10 μl portion of a 0.5% w/v solution of oxazolone in acetone. After 7 days, a 10 μl portion of a solution of the test compound in acetone (acidified to pH 5 with citric acid*) or, for control purposes, just the acidified acetone vehicle, was applied to the right ears of the mice and immediately followed by an application of 10 μl of 0.5% w/v solution of oxazolone in acetone. After 24 hours the animals were killed, the ears removed and results calculated as for Test A above.
*Note: acidified acetone was used to eliminate any possible reaction between the basic test compound of formula I and the oxazolone.]

cardiovasculature = experiment: adverse effects on the cardiovasculature after topical administration; settings: large doses administered topically to the skin
[4] = Average of experiments 1-3, 2% w/v in acetone pH 5
[5] = Experiment 1, 2% w/v in acetone pH 5, listed as (-)-optically active (S) form
[6] = Experiment 2, 2% w/v in acetone pH 5
[7] = Experiment 3, 2% w/v in acetone pH 5
[8] = cream formulation II, 0.25% w/w
[9] = 1% w/v in aqueous ethanol containing 40% w/v N-methylpyrrolidone

For CC(C)C(=O)NCCNC[C@H](O)COc1ccccc1 [(-)-(S) form, (-)-N-(2-[2-hydroxy-3-phenoxypropyl]aminoethyl)isobutyramide], the “% Inhibition” value ([1]; 4.9 μg/ear) was 23.8%, the “% increase in ear weight ± SEM” value ([1]; 4.9 μg/ear) was 65.2 ± 3.17% and the “% Inhibition” value ([1]; 14.8 μg/ear) was 46.5%. The “% increase in ear weight ± SEM” value ([1]; 14.8 μg/ear) was 45.8 ± 3.96%, the “% Inhibition” value ([1]; 44.4 μg/ear) was 52.2% and the “% increase in ear weight ± SEM” value ([1]; 44.4 μg/ear) was 40.9 ± 4.02%. For the same compound, the “% Inhibition” value ([1]; 133.3 μg/ear) was 66.5%, the “% increase in ear weight ± SEM” value ([1]; 133.3 μg/ear) was 28.6 ± 3.56% and the “% Inhibition” value ([1]; 400 μg/ear) was 91.8%. For the same compound, the “% increase in ear weight ± SEM” value ([1]; 400 μg/ear) was 7.0 ± 1.25%, the ED50 application rate [1] was 29 micrograms/ear and the “% of sites in which erythema is inhibited by 30%” value [2, 4] was 71%. The “% of sites in which erythema is inhibited by 50%” value [2, 4] was 53%, the “% of sites in which erythema is inhibited by 70%” value [2, 4] was 16% and the “% of sites in which erythema is inhibited by 30%” value [2, 5] was 80% and 73%. The “% of sites in which erythema is inhibited by 50%” value [2, 5] was 60% and 36%, the “% of sites in which erythema is inhibited by 30%” value [2, 6] was 50% and the “% of sites in which erythema is inhibited by 50%” value [2, 6] was 50%. The “% of sites in which erythema is inhibited by 70%” value [2, 6] was 17%, the “% of sites in which erythema is inhibited by 30%” value [2, 7] was 83% and the “% of sites in which erythema is inhibited by 50%” value [2, 7] was 67%. For the same compound, the “% of sites in which erythema is inhibited by 70%” value [2, 7] was 17%, the “% of sites in which erythema is inhibited by 30%” value [2, 8] was 86% and the “% of sites in which erythema is inhibited by 50%” value [2, 8] was 29%. The “% of sites in which erythema is inhibited by 70%” value [2, 8] was 14%, the “% of sites in which erythema is inhibited by 30%” value ([2]; cream formulation II, 0.5% w/w) was 86% and the “% of sites in which erythema is inhibited by 50%” value ([2]; cream formulation II, 0.5% w/w) was 29%. For the same compound, the “% of sites in which erythema is inhibited by 70%” value ([2]; cream formulation II, 0.5% w/w) was 29%, the “% of sites in which erythema is inhibited by 30%” value ([2]; cream formulation II, 1% w/w) was 88% and the “% of sites in which erythema is inhibited by 50%” value ([2]; cream formulation II, 1% w/w) was 75%. For the same compound, the “% of sites in which erythema is inhibited by 70%” value ([2]; cream formulation II, 1% w/w) was 50%, the “% of sites in which erythema is inhibited by 30%” value ([2]; cream formulation II, 2% w/w) was 100% and the “% of sites in which erythema is inhibited by 50%” value ([2]; cream formulation II, 2% w/w) was 80%. For the same compound, the “% of sites in which erythema is inhibited by 70%” value ([2]; cream formulation II, 2% w/w) was 80%, the Inhibition ([3]; 2.5 μg/ear) was 20 ± 8% and the Inhibition ([3]; 25 μg/ear) was 35 ± 9%. For the same compound, the Inhibition ([3]; 250 μg/ear) was 60 ± 7% and the ED50 ([3]; calculated from the dose-inhibition table) was 91 μg/ear.
With C[C@]12CCC(=O)C=C1CC[C@@H]1[C@@H]2[C@@H](O)C[C@@]2(C)[C@H]1CC[C@]2(O)C(=O)CO [hydrocortisone, reference compound] the Inhibition ([1]; similar test conditions, 25 μg/ear) was “approximately 70%”, the “% of sites in which erythema is inhibited by 30%” value [2, 9] was 67% and the “% of sites in which erythema is inhibited by 50%” value [2, 9] was 28%. For the same compound, the “% of sites in which erythema is inhibited by 70%” value [2, 9] was 6%.
With CCCCC(=O)O[C@]1(C(=O)CO)[C@@H](C)C[C@H]2[C@@H]3CCC4=CC(=O)C=C[C@]4(C)[C@@]3(F)[C@@H](O)C[C@@]21C [BV, betamethasone-17-valerate, reference compound] the “% of sites in which erythema is inhibited by 30%” value [2, 9] was 75%, the “% of sites in which erythema is inhibited by 50%” value [2, 9] was 38% and the “% of sites in which erythema is inhibited by 70%” value [2, 9] was 25%.
With CC(C)C(=O)NCCNCC(O)COc1ccccc1 (racemic) [compound of formula I, N-(2-[2-hydroxy-3-phenoxypropyl]aminoethyl)isobutyramide] the “overt toxic or adverse effects” value ([2]; during Test C) was “no overt toxic or adverse effects were observed” and the “adverse effects on the cardiovasculature” value (cardiovasculature) was “no adverse effects on the cardiovasculature”.
For CC(C)C(=O)NCCNC[C@@H](O)COc1ccccc1 [reference compound], the “activity as topical anti-inflammatory agent” value (shortened to “activity”) [1] was “inactive”.
O=C(NCCNCC(O)COc1ccc(O)cc1)N1CCOCC1 (stereo not drawn) [xamoterol, reference compound] was tested, and the “activity” value [1] was “inactive”.
With CC(C)C(=O)NCCNCC(O)COc1ccccc1 (racemic) [racemate, N-(2-[2-hydroxy-3-phenoxypropyl]aminoethyl)isobutyramide] the “% Inhibition” value ([1]; 2.5 μg/ear) was 25.6%, the “% increase in ear weight ± SEM” value ([1]; 2.5 μg/ear) was 59.1 ± 5.92% and the “% Inhibition” value ([1]; 25 μg/ear) was 49.3%. For the same compound, the “% increase in ear weight ± SEM” value ([1]; 25 μg/ear) was 40.2 ± 4.88%, the “% Inhibition” value ([1]; 250 μg/ear) was 61.8% and the “% increase in ear weight ± SEM” value ([1]; 250 μg/ear) was 30.3 ± 4.0%. The ED50 application rate [1] was 44 micrograms/ear.
CC(C)NCC(O)COc1cccc2ccccc12 (stereo not drawn) [propranolol, reference compound] was tested, and the “activity” value [1] was “inactive”.
